Counter-ions that a name gives are not always drawn. Active and inactive are the calls of the source.
Key:
[1] = target: T1, Short transient receptor potential channel 4 (Mus musculus, UniProt Q9QUQ5); assay: block of DAMGO-driven TRPC4 calcium entry – cell-based, HEK293 TRPC4/mu-opioid, Fluo-4 calcium, dose response (AID 434942); format: functional;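 note: potency of inhibitors blocking the TRPC4 calcium response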
T1 sequence (Q9QUQ5 whole entry): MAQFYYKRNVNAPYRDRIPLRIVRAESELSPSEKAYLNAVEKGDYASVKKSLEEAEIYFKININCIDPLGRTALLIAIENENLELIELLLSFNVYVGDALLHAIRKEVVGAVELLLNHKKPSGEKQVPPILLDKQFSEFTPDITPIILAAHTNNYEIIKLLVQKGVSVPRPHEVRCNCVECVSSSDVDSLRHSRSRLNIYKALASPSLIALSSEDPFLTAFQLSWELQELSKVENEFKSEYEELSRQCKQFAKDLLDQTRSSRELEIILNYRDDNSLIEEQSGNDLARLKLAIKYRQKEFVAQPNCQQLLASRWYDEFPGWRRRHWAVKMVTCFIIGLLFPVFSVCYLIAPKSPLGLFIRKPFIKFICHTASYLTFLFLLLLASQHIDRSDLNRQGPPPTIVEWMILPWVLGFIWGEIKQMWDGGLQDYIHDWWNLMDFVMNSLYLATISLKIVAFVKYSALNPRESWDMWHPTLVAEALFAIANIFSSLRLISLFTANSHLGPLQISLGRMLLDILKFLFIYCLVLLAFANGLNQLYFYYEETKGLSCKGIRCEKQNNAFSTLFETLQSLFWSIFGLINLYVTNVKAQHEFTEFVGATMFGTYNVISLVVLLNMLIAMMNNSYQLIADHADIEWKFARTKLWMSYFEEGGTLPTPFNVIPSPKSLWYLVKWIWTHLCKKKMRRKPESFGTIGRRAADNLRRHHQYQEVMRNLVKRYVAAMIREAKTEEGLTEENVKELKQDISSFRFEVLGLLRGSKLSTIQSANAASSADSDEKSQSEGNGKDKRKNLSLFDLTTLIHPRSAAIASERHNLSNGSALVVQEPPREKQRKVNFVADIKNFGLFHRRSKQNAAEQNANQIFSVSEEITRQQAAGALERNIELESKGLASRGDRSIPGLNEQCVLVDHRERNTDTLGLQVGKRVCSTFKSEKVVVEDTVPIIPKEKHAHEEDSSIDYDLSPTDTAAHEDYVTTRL

[2] = cells; format: functional, cell-based
[3] = cells; format: functional, cell-based; remark: listed apart in the source
[4] = system: P388/ADR; assay: cells; format: functional; conditions: Mus musculus
[5] = system: SN12K1; assay: cells; format: functional; conditions: Homo sapiens
[6] = system: P388; assay: cells; format: functional; conditions: Mus musculus
[7] = target: T2, Zinc finger protein mex-5 (Caenorhabditis elegans, UniProt Q9XUB2); assay: potency of MEX-5 RNA-binding blockers – biochemical, C. elegans, fluorescence polarization, dose response (AID 1960)
T2 sequence (Q9XUB2 whole entry): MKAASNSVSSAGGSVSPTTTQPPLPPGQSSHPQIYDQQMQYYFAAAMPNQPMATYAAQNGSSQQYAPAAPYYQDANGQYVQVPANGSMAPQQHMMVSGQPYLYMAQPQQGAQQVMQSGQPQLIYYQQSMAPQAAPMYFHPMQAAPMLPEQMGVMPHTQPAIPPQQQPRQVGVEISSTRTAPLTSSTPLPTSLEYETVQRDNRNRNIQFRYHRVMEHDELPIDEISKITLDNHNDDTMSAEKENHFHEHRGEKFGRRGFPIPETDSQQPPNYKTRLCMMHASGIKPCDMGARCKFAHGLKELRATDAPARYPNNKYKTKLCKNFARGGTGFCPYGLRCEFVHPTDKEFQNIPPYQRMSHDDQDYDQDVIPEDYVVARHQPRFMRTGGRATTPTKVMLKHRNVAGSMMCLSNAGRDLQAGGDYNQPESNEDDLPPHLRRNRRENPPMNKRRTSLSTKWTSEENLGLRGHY

[8] = luciferase reporter signal suppression in cells – H4 neuroglioma cells, luminescence, dose response (AID 1990); format: functional, cell-based
[9] = alpha-synuclein stem-loop luciferase translation blockers – H4 neuroglioma cells, luminescence, confirmation (AID 1988); format: functional, cell-based
[10] = target: T3, RNA-binding protein pos-1 (Caenorhabditis elegans, UniProt G5EF15); assay: disruptors of C. elegans POS-1 RNA interaction – biochemical, fluorescence polarization, dose response (AID 1964);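 note: purified POS-1 fused to maltose binding protein made in E. coli; potency of compounds blocking POS-1 binding to fluorescent RNA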
T3 sequence (G5EF15 whole entry): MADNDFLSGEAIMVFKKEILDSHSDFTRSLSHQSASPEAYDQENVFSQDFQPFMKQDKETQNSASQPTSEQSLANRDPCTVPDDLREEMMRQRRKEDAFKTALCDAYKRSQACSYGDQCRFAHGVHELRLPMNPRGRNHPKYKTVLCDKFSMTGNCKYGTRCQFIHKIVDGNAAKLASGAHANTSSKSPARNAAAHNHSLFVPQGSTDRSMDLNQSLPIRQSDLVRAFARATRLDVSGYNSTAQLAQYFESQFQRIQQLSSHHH

[11] = Luminescence Cell-Based Dose Response HTS to Identify Inhibitors of 5'UTR Stem-Loop Driven Prion Protein mRNA Translation in H4 Neuroglioblastoma Cells. [Related pubchem assays: 1827 (Project Summary), 1813 (Primary HTS)]; format: functional
[12] = P. falciparum Dd2 growth inhibitors, dose response, SYBR Green, cherry-picked samples (AID 1159567); format: functional, cell-based

Q: Which EC50 [1] does the source give for `CCOc1c(Cl)cc(CNC(C)C(O)c2ccccc2)cc1OC` (stereo not drawn) here?
A: Its EC50 is 1.33 µM (active).

Q: Which results are given for `O=C(Nc1ccccc1)N(C1=NCCCCS1)c1cccc2ccccc12`?
A: EC50 [2]: > 350 µM (not active); EC50 [3]: 43.7 µM (active)

Q: Which results are given for `CC(=O)Nc1cccc(NC(=O)CS(=O)(=O)c2cn(CC(=O)N3CCOCC3)c3ccccc23)c1`?
A: EC50 [2]: > 350 µM (not active); EC50 [3]: > 350 µM (not active)

Q: Which EC50 [1] does the source give for `Cc1c(CN2CCC(n3nccc3NC(=O)CCc3ccccc3)CC2)cnn1C` here?
A: Its EC50 is 0.421 µM (active).

Q: Which GI50 [4] does the source give for `O=C(NC(Cc1ccc(I)cc1)C(=O)O)c1ccc(Cl)cc1` (stereo not drawn) here?
A: Its GI50 is 62.1 µM (inactive).

Q: What about the GI50 [5] of the same molecule?
A: The GI50 was > 100 µM (inactive).

Q: What about the GI50 [6] of the same molecule?
A: Its GI50 is 72.4 µM (inactive).

Q: For `CC[C@@]1(O)C[C@H](OC2CC(N(C)C)C(O)C(C)O2)c2c(cc3c(c2O)C(=O)c2c(O)ccc(O)c2C3=O)[C@H]1C(=O)OC` (stereo partly drawn), which GI50 [4] is on record?
A: Its GI50 is 0.0175 µM (active).

Q: And the GI50 [5]?
A: The GI50 was 0.0328 µM (active).

Q: What about the GI50 [6] of the same molecule?
A: The GI50 was 0.0175 µM (active).

Q: Which GI50 [4] does the source give for `CCCCCCCCCCCCCCCCNCC(O)CN` (stereo not drawn) here?
A: The GI50 was 2.05 µM (inactive).

Q: What about the GI50 [5] of the same molecule?
A: The GI50 was 1.77 µM (inactive).

Q: What about the GI50 [6] of the same molecule?
A: Its GI50 is 1.95 µM (inactive).

Q: Which GI50 [4] does the source give for `COC(=O)C1C(O)C(C)C(O)OC1C(C)C(O)C(C)/C=C\C=C(/C)C(=O)Nc1c(C)c(OC(C)=O)c2c(c1O)C(=O)C(C)=C1OCOC(/C(C)=C/C(C)=O)=C12` (stereo not drawn) here?
A: The GI50 was 13.2 µM (inactive).

Q: And the GI50 [5]?
A: The GI50 was 13.3 µM (inactive).

Q: What about the GI50 [6] of the same molecule?
A: Its GI50 is 1.93 µM (inactive).

Q: With `O=S(=O)(O)c1ccc(/N=N\c2ccc(/N=N\c3ccc(/C=C/c4ccc(/N=[N+](/[O-])c5ccc(/C=C/c6ccc(/N=N/c7ccc(/N=N\c8ccc(S(=O)(=O)O)cc8)cc7)cc6S(=O)(=O)O)c(S(=O)(=O)O)c5)cc4S(=O)(=O)O)c(S(=O)(=O)O)c3)cc2)cc1` as the molecule, how does the GI50 [4] read?
A: The GI50 was > 100 µM (inactive).

Q: What about the GI50 [5] of the same molecule?
A: The GI50 was > 100 µM (inactive).

Q: What about the GI50 [6] of the same molecule?
A: The GI50 was > 100 µM (inactive).

Q: Which GI50 [4] does the source give for `COc1cc(O)c2c(c1)C(=O)c1cc3c(c(O)c1C2=O)C(OC1OC(C)C(O)C(O)C1OC)C(OC)C(C)(O)C3=O` (stereo not drawn) here?
A: Its GI50 is 7.59 µM (inactive).

Q: And the GI50 [5]?
A: Its GI50 is 2.42 µM (inactive).

Q: What about the GI50 [6] of the same molecule?
A: The GI50 was 5.66 µM (inactive).

Q: Which results are given for `Cc1ccc(NC(=O)COc2ccc(/C=C3/S/C(=N/c4ccccc4)N(Cc4cccnc4)C3=O)cc2)cc1`?
A: EC50 [7]: > 300 µM (not active); EC50 [8]: > 120 µM (not active); EC50 [9]: > 120 µM (not active); EC50 [10]: > 300 µM (not active); EC50 [11]: > 120 µM (not active)

Q: Which AC50 [12] does the source give for `C[C@@H]1CN([C@@H](C)CO)C(=O)c2cccc(NC(=O)C3CC3)c2O[C@H]1CN(C)Cc1ccc(-c2ccccc2)cc1` here?
A: Its AC50 is 3.44 µM (active).

Q: With `COc1cccc(-c2cn(CC[C@@H]3CC[C@H](NS(=O)(=O)c4ccccc4Cl)[C@H](CO)O3)nn2)c1` as the molecule, how does the AC50 [12] read?
A: Its AC50 is 7.33 µM (active).

Q: For `COc1ccccc1CN1C[C@@H](C)[C@H](OC)CN(C)C(=O)c2cc(NC(=O)Nc3ccccc3OC)ccc2OC[C@H]1C`, which AC50 [12] is on record?
A: The AC50 was 4.12 µM (active).

Q: For `O=Cc1c(Cn2ccnc2)c2cc([N+](=O)[O-])ccc2n1Cc1ccccc1`, which GI50 [4] is on record?
A: Its GI50 is 63 µM (inactive).

Q: What about the GI50 [5] of the same molecule?
A: Its GI50 is 50.8 µM (inactive).

Q: What about the GI50 [6] of the same molecule?
A: The GI50 was 40.8 µM (inactive).

Q: With `CCN(CC)CCNc1ccc(CO)c2sc3ccccc3c(=O)c12` [HYCANTHONE MESYLATE] as the molecule, how does the GI50 [4] read?
A: Its GI50 is 7.35 µM (inactive).

Q: What about the GI50 [5] of the same molecule?
A: Its GI50 is 7.43 µM (inactive).

Q: What about the GI50 [6] of the same molecule?
A: Its GI50 is 2.94 µM (inactive).
